Results published in article PMC7567103 (Nature Communications, 2020).

How the values were obtained:
Type in all cases: cell-based
GHRHR D350A = target: T1, GHRHR D350A (Homo sapiens, UniProt Q02643, D350A); experiment: cAMP accumulation, D350A; details: mean ± SEM, n ≥ 3
T1 construct: GHRHR(23-423)-; HA signal peptide (replaces native signal M1-G22) (N); expressed in transfected cells; host or cells: HEK 293 T
Description: (§1) Fig. 2 Molecular recognition of GHRH by GHRHR and comparison of that with LA-PTH–PTH1R and GLP-1–GLP-1R. a Detailed interaction between GHRH and the TMD pocket of GHRHR with hydrogen bonds shown as dotted lines. b, c Pairwise comparison of GHRH bound to GHRHR with GLP-1 and LA-PTH in complex with their corresponding receptors, showing the relative positions of peptide ligands. Lime green, GHRHR; blue, GHRH; red, PTH1R and LA-PTH; purple, GLP-1R and GLP-1. d–f The effects of mutation in the ligand-binding pocket on cAMP accumulation. cAMP levels were measured in wild-type (WT) receptor and alanine mutants in ECL1, 2, and 3 (d), TM1, 2, and 3 (e), and TM5, 6, and 7 (f). cAMP signals were normalized to the maximum response of WT and concentration–response curves were analyzed using a three-parameter logistic equation. Data shown are means ± S.E.M. of at least three independent experiments (n = 3–5), conducted in triplicate. Source data are provided as a Source data file.
(§2) GHRH-stimulated cAMP accumulation was measured by a LANCE Ultra cAMP kit (PerkinElmer). […] After 1 h RT incubation, TR-FRET signals (excitation: 320 nm, emission: 615 and 665 nm) were measured by an EnVision (PerkinElmer).

GHRHR W282A = target: T2, GHRHR W282A (Homo sapiens, UniProt Q02643, W282A); experiment: cAMP accumulation, W282A; details: mean ± SEM, n ≥ 3
T2 construct: GHRHR(23-423)-; HA signal peptide (replaces native signal M1-G22) (N); expressed in transfected cells; host or cells: HEK 293T, pcDNA3.1, transient
Description: as §1, §2

GHRHR D276A = target: T3, GHRHR D276A (Homo sapiens, UniProt Q02643, D276A); experiment: cAMP accumulation, D276A; details: mean ± SEM, n ≥ 3
T3 construct: GHRHR(23-423)-; HA signal peptide (replaces native signal M1-G22) (N); expressed in transfected cells; host or cells: HEK 293T, pcDNA3.1, transient
Description: as §1, §2

GHRHR A271F = target: T4, GHRHR A271F (Homo sapiens, UniProt Q02643, A271F); experiment: cAMP accumulation, A271F; details: mean ± SEM, n ≥ 3
T4 construct: GHRHR(23-423)-; HA signal peptide (replaces native signal M1-G22) (N); expressed in transfected cells; host or cells: HEK 293T, pcDNA3.1, transient
Description: as §1, §2

GHRHR E122A = target: T5, GHRHR E122A (Homo sapiens, UniProt Q02643, E122A); experiment: cAMP accumulation, E122A; details: mean ± SEM, n ≥ 3
T5 construct: GHRHR(23-423)-; HA signal peptide (replaces native signal M1-G22) (N); expressed in transfected cells; host or cells: HEK 293T, pcDNA3.1, transient
Description: as §1, §2

GHRHR H210A = target: T6, GHRHR H210A (Homo sapiens, UniProt Q02643, H210A); experiment: cAMP accumulation, H210A; details: mean ± SEM, n ≥ 3
T6 construct: GHRHR(23-423)-; HA signal peptide (replaces native signal M1-G22) (N); expressed in transfected cells; host or cells: HEK 293T, pcDNA3.1, transient
Description: as §1, §2

GHRHR F126A = target: T7, GHRHR F126A (Homo sapiens, UniProt Q02643, F126A); experiment: cAMP accumulation, F126A; details: mean ± SEM, n ≥ 3
T7 construct: GHRHR(23-423)-; HA signal peptide (replaces native signal M1-G22) (N); expressed in transfected cells; host or cells: HEK 293T, pcDNA3.1, transient
Description: as §1, §2

GHRHR V129A = target: T8, GHRHR V129A (Homo sapiens, UniProt Q02643, V129A); experiment: cAMP accumulation, V129A; details: mean ± SEM, n ≥ 3
T8 construct: GHRHR(23-423)-; HA signal peptide (replaces native signal M1-G22) (N); expressed in transfected cells; host or cells: HEK 293T, pcDNA3.1, transient
Description: as §1, §2

GHRHR(23-423) (WT) = target: T9, GHRHR(23-423) (WT) (Homo sapiens, UniProt Q02643); experiment: cAMP accumulation, construct GHRHR(23-423) (WT) (Supplementary Fig. 2b); details: HEK 293T; mean ± SEM, n = 8-10
T9 construct: 24 h after transfection with GHRHR(23-423), GHRHR(23-405), GHRHR(23-405)-LgBiT-2MBP, or HA-Flag-GHRHR (WT and mutants); HA signal peptide (replaces native signal M1-G22) (N); expressed in transfected cells; host or cells: HEK 293 T
T9 sequence (Q02643 23-423): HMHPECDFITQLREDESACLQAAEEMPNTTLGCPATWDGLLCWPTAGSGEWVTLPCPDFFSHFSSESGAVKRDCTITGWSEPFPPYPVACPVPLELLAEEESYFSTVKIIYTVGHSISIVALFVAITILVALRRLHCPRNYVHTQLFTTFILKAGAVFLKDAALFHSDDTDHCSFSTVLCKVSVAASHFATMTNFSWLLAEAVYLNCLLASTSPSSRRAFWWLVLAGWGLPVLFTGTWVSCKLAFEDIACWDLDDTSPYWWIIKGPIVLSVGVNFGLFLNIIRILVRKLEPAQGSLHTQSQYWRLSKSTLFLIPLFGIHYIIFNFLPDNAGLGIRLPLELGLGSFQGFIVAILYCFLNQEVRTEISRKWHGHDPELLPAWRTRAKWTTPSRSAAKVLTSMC
Experimental: GHRH-stimulated cAMP accumulation was measured by a LANCE Ultra cAMP kit (PerkinElmer). Briefly, 24 h after transfection with GHRHR(23-423), GHRHR(23-405), GHRHR(23-405)-LgBiT-2MBP, or HA-Flag-GHRHR (WT and mutants), HEK 293 T cells (3000/well in 384-well white plates, PerkinElmer) were digested by 0.2% (w/v) EDTA and 5 μL stimulation buffer (HBSS supplemented with 5 mM HEPES, 0.5 mM IBMX, and 0.1% (w/v) BSA, pH 7.4). Different concentrations (5 μL) of GHRH were then added and the stimulation lasted for 30 min at RT. The reaction was stopped by adding 5 μL Eu-cAMP tracer and 5 μL ULight-anti-cAMP. After 1 h RT incubation, TR-FRET signals (excitation: 320 nm, emission: 615 and 665 nm) were measured by an EnVision (PerkinElmer).
223 Supplementary Ta b l e 1. Effects of GHRH-mediated cAMP accumulation.
Receptor cAMP Cell surface expression Binding
pEC50 Emax (% WT) (% WT) pIC50 […]
225 to determine pEC50 and Emax values. pEC50 is the negative logarithm of the molar
226 concentration of agonist that induced half the maximal response. Cell surface […]
228 Flag antibody (Sigma-Aldrich, 1:300); Donkey anti-Mouse Alexa Fluor 488-
229 conjugated secondary antibody, (ThermoFisher Scientific, 1:1000)] on the […]
231 Binding data were analyzed using a three-parameter logistic equation to […]
234 determine statistical difference. *P<0.01; ND, not determined.

GHRHR D274A = target: T10, GHRHR D274A (Homo sapiens, UniProt Q02643, D274A); experiment: cAMP accumulation, D274A; details: mean ± SEM, n ≥ 3
T10 construct: GHRHR(23-423)-; HA signal peptide (replaces native signal M1-G22) (N); expressed in transfected cells; host or cells: HEK 293T, pcDNA3.1, transient
Description: as §1, §2

GHRHR L358A = target: T11, GHRHR L358A (Homo sapiens, UniProt Q02643, L358A); experiment: cAMP accumulation, L358A; details: mean ± SEM, n ≥ 3
T11 construct: GHRHR(23-423)-; HA signal peptide (replaces native signal M1-G22) (N); expressed in transfected cells; host or cells: HEK 293 T
Description: as §1, §2

GHRHR F187A = target: T12, GHRHR F187A (Homo sapiens, UniProt Q02643, F187A); experiment: cAMP accumulation, F187A; details: mean ± SEM, n ≥ 3
T12 construct: GHRHR(23-423)-; HA signal peptide (replaces native signal M1-G22) (N); expressed in transfected cells; host or cells: HEK 293T, pcDNA3.1, transient
Description: as §1, §2

T7 sequence (Q02643 23-423 F126A): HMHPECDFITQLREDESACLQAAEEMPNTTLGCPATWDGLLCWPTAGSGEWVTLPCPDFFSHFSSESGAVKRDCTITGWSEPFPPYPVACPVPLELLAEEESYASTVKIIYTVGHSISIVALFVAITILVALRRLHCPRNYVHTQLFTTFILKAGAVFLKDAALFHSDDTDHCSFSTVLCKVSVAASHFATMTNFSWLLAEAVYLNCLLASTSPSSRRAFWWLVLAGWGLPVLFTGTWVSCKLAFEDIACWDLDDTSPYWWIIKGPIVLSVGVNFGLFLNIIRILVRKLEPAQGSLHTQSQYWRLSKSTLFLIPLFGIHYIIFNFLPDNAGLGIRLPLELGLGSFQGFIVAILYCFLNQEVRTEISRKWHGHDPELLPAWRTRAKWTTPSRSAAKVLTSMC
T3 sequence (Q02643 23-423 D276A): as the sequence (Q02643 23-423 F126A) above, with A104F, D254A counted along it
T12 sequence (Q02643 23-423 F187A): as the sequence (Q02643 23-423 F126A) above, with A104F, F165A counted along it
T2 sequence (Q02643 23-423 W282A): as the sequence (Q02643 23-423 F126A) above, with A104F, W260A counted along it
T5 sequence (Q02643 23-423 E122A): as the sequence (Q02643 23-423 F126A) above, with E100A, A104F counted along it
T8 sequence (Q02643 23-423 V129A): as the sequence (Q02643 23-423 F126A) above, with A104F, V107A counted along it
T1 sequence (Q02643 23-423 D350A): as the sequence (Q02643 23-423 F126A) above, with A104F, D328A counted along it
T6 sequence (Q02643 23-423 H210A): as the sequence (Q02643 23-423 F126A) above, with A104F, H188A counted along it
T10 sequence (Q02643 23-423 D274A): as the sequence (Q02643 23-423 F126A) above, with A104F, D252A counted along it
T4 sequence (Q02643 23-423 A271F): as the sequence (Q02643 23-423 F126A) above, with A104F, A249F counted along it
T11 sequence (Q02643 23-423 L358A): as the sequence (Q02643 23-423 F126A) above, with A104F, L336A counted along it

`CC[C@H](C)[C@H](NC(=O)[C@H](C)NC(=O)[C@H](CC(=O)O)NC(=O)[C@H](C)NC(=O)[C@@H](N)Cc1ccc(O)cc1)C(=O)N[C@@H](Cc1ccccc1)C(=O)N[C@H](C(=O)N[C@@H](CC(N)=O)C(=O)N[C@@H](CO)C(=O)N[C@@H](Cc1ccc(O)cc1)C(=O)N[C@@H](CCCNC(=N)N)C(=O)N[C@@H](CCCCN)C(=O)N[C@H](C(=O)N[C@@H](CC(C)C)C(=O)NCC(=O)N[C@@H](CCC(N)=O)C(=O)N[C@@H](CC(C)C)C(=O)N[C@@H](CO)C(=O)N[C@@H](C)C(=O)N[C@@H](CCCNC(=N)N)C(=O)N[C@@H](CCCCN)C(=O)N[C@@H](CC(C)C)C(=O)N[C@@H](CC(C)C)C(=O)N[C@@H](CCC(N)=O)C(=O)N[C@@H](CC(=O)O)C(=O)N[C@H](C(=O)N[C@@H](CCSC)C(=O)N[C@@H](CO)C(=O)N[C@@H](CCCNC(=N)N)C(=O)N[C@@H](CCC(N)=O)C(=O)N[C@@H](CCC(N)=O)C(=O)NCC(=O)N[C@@H](CCC(=O)O)C(=O)N[C@@H](CO)C(=O)N[C@@H](CC(N)=O)C(=O)N[C@@H](CCC(N)=O)C(=O)N[C@@H](CCC(=O)O)C(=O)N[C@@H](CCCNC(=N)N)C(=O)NCC(=O)N[C@@H](C)C(=O)N[C@@H](CCCNC(=N)N)C(=O)N[C@@H](C)C(=O)N[C@@H](CCCNC(=N)N)C(=O)N[C@@H](CC(C)C)C(N)=O)[C@@H](C)CC)C(C)C)[C@@H](C)O` [GHRH, Growth hormone-releasing hormone] was tested, and the EC50 (GHRHR D350A) was 148 nM, the Emax (GHRHR D350A) was 47.38±8.48 % WT and the EC50 (GHRHR W282A) was 13.2 nM. The Emax (GHRHR W282A) was 101.88±5.62 % WT, the EC50 (GHRHR D276A) was 0.331 nM and the Emax (GHRHR D276A) was 102.04±0.51 % WT. The EC50 (GHRHR A271F) was 0.186 nM, the Emax (GHRHR A271F) was 103.70±0.64 % WT and the EC50 (GHRHR E122A) was 0.11 nM. The Emax (GHRHR E122A) was 98.38±3.26 % WT, the EC50 (GHRHR H210A) was 1 nM and the Emax (GHRHR H210A) was 99.66±1.10 % WT. The EC50 (GHRHR F126A) was 1.1 nM, the Emax (GHRHR F126A) was 98.92±0.84 % WT and the EC50 (GHRHR V129A) was 166 nM. The Emax (GHRHR V129A) was 24.33±6.11 % WT, the EC50 (GHRHR(23-423) (WT)) was 0.631 nM and the Emax (GHRHR(23-423) (WT)) was 100 % WT. For the same compound, the EC50 (GHRHR D274A) was 0.468 nM, the Emax (GHRHR D274A) was 99.78±2.32 % WT and the EC50 (GHRHR L358A) was 1.05 nM. It also gave an Emax (GHRHR L358A) of 100.3±1.21 % WT, an EC50 (GHRHR F187A) of 1.15 nM and an Emax (GHRHR F187A) of 101.68±1.52 % WT.
